Reference: patent publication US20230218723A1, “COMPOSITIONS AND METHODS FOR USING SILK-ELASTINLIKE PROTEIN-BASED POLYMERS” (University of Utah Research Foundation, priority 2019, published 2023)

Key:
[1] = ICG fluorescence imaging, IVIS and clinical endoscope; format: physicochemical
Procedure: A Karl Storz 4 mm×18 cm ICG endoscope (Karl Storz, Tuttlingen, Germany) attached with a Power LED light source with fiber optic ICG cable and Karl Storz Image is Video System with ICG High Def Camera Head (Karl Storz, Tuttlingen, Germany) was used for imaging the ICG at different concentrations. ICG solution was prepared by mixing 25 mg of ICG in 1 mL of water, resulting in a 25 mg/mL solution. The solution was diluted by half in subsequent wells of a 96-well plate, and the last well was filled with only water (negative control). The endoscope's imaging head was held 4 mm above the surface of the 96-well plate to acquire images. Fluorescent light was captured by the camera and shown as blue. The intensity of the fluorescent light was quantified using the Zen Lite Blue software version 2.6 (Zeiss, Oberkochen, Germany). A fixed area of equal size for each well was selected, and the fluorescence was quantified by taking the arithmetic mean intensity of blue contribution for that particular region in pixels. IVIS was used to image ICG at different concentrations. […] An overlay image combination of photographic and fluorescent image was recorded. The region of interest (ROI) tool was used to perform quantification of the surface intensities. Equal size ROIs were drawn on each well of the plate, and the radiant efficiency was recorded by the software for each defined ROI. […]

L-929 fibroblasts = test: Cytotoxicity of ICG and SELP-ICG, CCK-8, L-929; format: cell-based, murine; details: L929 cells, 24 hrs, as ICG concentration
Source text: (§1) L-929 and HUVEC were selected for use in assessing the cytotoxicity of the SELP-ICG embolic based upon their utility with respect to regulatory testing and relevance to the intended application of the device. L-929 cells are commonly used for FDA testing of contact cytotoxicity of medical devices, such as embolics. HUVEC represents a human cell line, another common cell that is also frequently used for evaluating cytotoxicity. Additionally, HUVEC represents vascular endothelial cells that embolic SELP will be in close contact with during in vivo administration. L-929 fibroblasts were grown with Dulbecco's Modified Eagle Medium (DMEM):F12 (1:1) media, supplemented with 10% FBS, and HUVECs were grown in ECGM. The cells were grown in T-75 flasks at 37° C. with 5% CO2 and passaged at 80-95% confluency. Cells were suspended using TrypLE™ Express Enzyme with no phenol red according to the manufactures protocol. The viability of cells was assessed using 0.4% trypan blue stain using a Countess Automated Cell Counter (ThermoFisher Scientific, Waltham, Mass.). L-929 cells were seeded into new T-75 flasks with 3×10^5 to 6×10^5 viable cells. […] Viability was measured after 24 hrs using a Cell Counting Kit (CCK)-8 assay kit (Dojindo, Kumamoto, Japan). […] LD50 values were determined by fitting the data to a Hill plot with a variable slope using GraphPad Prism 5.0.

HUVEC = test: Cytotoxicity of ICG and SELP-ICG, CCK-8, HUVEC; format: cell-based, human; details: 24 hrs, as ICG concentration
Source text: as §1

[2] = cited from earlier work

In the case of `CC1(C)C(/C=C/C=C/C=C/C=C2\N(CCCCS(=O)(=O)O)c3ccc4ccccc4c3C2(C)C)=[N+](CCCCS(=O)(=O)[O-])c2ccc3ccccc3c21` [ICG, Indocyanine green], the “optimal concentration for fluorescence” value ([1]; IVIS and Karl Storz ICG endoscope) is reported as 0.012 mg/mL, the “concentration above which self-quenching occurs” value ([1]; image analysis) is reported as “higher than 0.012 mg/mL” and the LD50 (L-929 fibroblasts) is reported as 0.28 ± 0.14 mg/mL. The LD50 (HUVEC) was 0.068 ± 0.009 mg/mL, the half-life ([2]; clearance from the bloodstream after intravenous administration) was 3 to 5 min and the “share of the dose remaining within the tumor by the time of surgery” value ([2]; intravenous administration) was “approximately 0.05%”.
